Measured values published in patent US5140014A (Abbott Laboratories, priority 1989, dated 1992).
Values after ≈ are worked out from the molar mass of the structure shown. Read-outs that look alike come from different tables or passages of the source.

How the values were obtained:
Test in all cases: in vitro antibacterial activity, agar dilution method (MIC)
Assay type in all cases: cell-based
[1] = test system: Pseudomonas Cepacia; conditions: Burkholderia cepacia; strain 296I; BHI agar, 20-24 hours; read-out: MIC
Procedure: (§1) Compounds 1 to 8 were evaluated for antibacterial activity by the agar dilution method to determine the degree of in vitro susceptibility of aerobic microorganisms to antimicrobial agents. The test medium was Brain Heart Infusion (BHI) agar. The antibacterial agent was dissolved at a concentration of 2,000 ug/mL. Test plates were then prepared, usually 12 two-fold dilutions. After adding the sample to the plates, 10 mL of cooled BHI agar medium was added to each plate. The organisms were grown overnight in BHI broth (Difco) in a 35°-37° C. incubator.
(§2) On the day of testing, the bacterial suspensions were diluted 1:100 in sterile distilled water, except for a few slow-growing organisms (usually Micrococcus and Streptococcus) which were diluted 1:10. The plate was then inoculated with approximately 10^4 organisms. This was incubated in a 35°-37° C. incubator for 20-24 hours. Thereafter, the plates were read to determine the minimum inhibitory concentration (MIC) defined as the lowest concentration of drug yielding no growth on the plate, a slight haze, or sparsely isolated colonies on the inoculum spot as compared to the growth control.

[2] = test system: Escherichia Coli; conditions: Escherichia coli, BHI agar, 20-24 hours, read-out: MIC
Procedure: as §1, §2

[3] = test system: Acinetobacter Sp; conditions: Acinetobacter, strain CMX 669; BHI agar, 20-24 hours; read-out: MIC
Procedure: (§3) The test medium was Brain Heart Infusion (BHI) agar. The antibacterial agent was dissolved at a concentration of 2,000 ug/mL. Test plates were then prepared, usually 12 two-fold dilutions. After adding the sample to the plates, 10 mL of cooled BHI agar medium was added to each plate. The organisms were grown overnight in BHI broth (Difco) in a 35°-37° C. incubator.
as §2

[4] = test system: Pseudomonas Aeruginosa; conditions: Pseudomonas aeruginosa, BHI agar, 20-24 hours, read-out: MIC
Procedure: as §3, §2

[5] = test system: Streptococcus Agalactiae; conditions: Streptococcus agalactiae, strain CMX 508; BHI agar, 20-24 hours; read-out: MIC
Procedure: as §3, §2

[6] = test system: Enterobacter Aerogenes; conditions: Klebsiella aerogenes, ATCC13048, strain ATCC 13048; BHI agar, 20-24 hours; read-out: MIC
Procedure: as §3, §2

[7] = test system: Haemophilus Influenzae; conditions: Haemophilus influenzae, BHI agar, 20-24 hours
Procedure: as §3, §2

[8] = test system: Staphylococcus Aureus; conditions: Staphylococcus aureus
Procedure: as §3, §2

[9] = test system: Providencia Stuartii; conditions: Providencia stuartii; strain CMX 640; BHI agar, 20-24 hours; read-out: MIC
Procedure: as §3, §2

[10] = test system: Streptococcus Bovis; conditions: Streptococcus equinus, strain A5169; BHI agar, 20-24 hours
Procedure: as §3, §2

[11] = test system: Staphylococcus Epidermidis; conditions: Staphylococcus epidermidis, strain 3519; BHI agar, 20-24 hours; read-out: MIC
Procedure: as §3, §2

[12] = test system: Klebsiella Pneumoniae; conditions: Klebsiella pneumoniae, ATCC8045, strain ATCC 8045; BHI agar, 20-24 hours; read-out: MIC
Procedure: as §3, §2

[13] = test system: Streptococcus Pyogenes; conditions: Streptococcus pyogenes
Procedure: as §3, §2

[14] = test system: Enterococcus Faecium; conditions: Enterococcus faecium, ATCC8043, strain ATCC 8043; BHI agar, 20-24 hours; read-out: MIC
Procedure: as §3, §2

[15] = test system: Micrococcus Luteus; conditions: Micrococcus luteus
Procedure: as §3, §2

[16] = ATCC43095, strain ATCC 43095, read-out: MIC
[17] = NCTC10649, strain NCTC 10649, BHI agar, 20-24 hours, read-out: MIC
[18] = strain 45, BHI agar, 20-24 hours, read-out: MIC
[19] = strain 45 RAR2, BHI agar, 20-24 hours, read-out: MIC
[20] = strain 642A, BHI agar, 20-24 hours, read-out: MIC
[21] = strain A5177, BHI agar, 20-24 hours, read-out: MIC
[22] = strain CMX 553, BHI agar, 20-24 hours, read-out: MIC
[23] = strain 930 CONST, BHI agar, 20-24 hours, read-out: MIC
[24] = strain 2548 INDUC, BHI agar, 20-24 hours, read-out: MIC
[25] = ATCC4698, strain ATCC 4698, BHI agar, 20-24 hours, read-out: MIC

Structure (SMILES): CCC1OC(=O)CC(O)C(C)C(OC2OC(C)CC(N(C)C)C2O)C(CC=O)CC(C)C(N(C)C)C=CC2(C)OC2C1C (stereo not shown) [Example 1, [9R]-9-Deoxo-9-N,N-dimethylamino-rosaramicin]
- MIC [1]: 100 µg/mL (≈ 164 µM)
- MIC ([2]; strain DC-2): 3.1 µg/mL (≈ 5.08 µM)
- MIC ([2]; strain H560): 0.78 µg/mL (≈ 1.28 µM)
- MIC ([2]; strain JUHL): 6.2 µg/mL (≈ 10.2 µM)
- MIC ([2]; strain KNK 437): 6.2 µg/mL (≈ 10.2 µM)
- MIC ([2]; strain SS): 0.1 µg/mL (≈ 0.164 µM)
- MIC [3]: 1.56 µg/mL (≈ 2.55 µM)
- MIC ([4]; strain A5007): > 100 µg/mL
- MIC ([4]; strain BMH10): 50 µg/mL (≈ 81.9 µM)
- MIC ([4]; strain K799/61): 0.78 µg/mL (≈ 1.28 µM)
- MIC ([4]; strain K799/WT): 50 µg/mL (≈ 81.9 µM)
- MIC [5]: 0.1 µg/mL (≈ 0.164 µM)
- MIC [6]: 6.2 µg/mL (≈ 10.2 µM)
- MIC ([7]; ATCC9795, strain ATCC 9795): 1 µg/mL (≈ 1.64 µM)
- MIC ([7]; ATCC10211, strain ATCC 10211): 1 µg/mL (≈ 1.64 µM)
- MIC ([7]; ATCC19418, strain ATCC 19418): 1 µg/mL (≈ 1.64 µM)
- MIC [7, 16]: 0.25 µg/mL (≈ 0.409 µM)
- MIC ([7]; strain 503B): 1 µg/mL (≈ 1.64 µM)
- MIC ([7]; strain 504): 1 µg/mL (≈ 1.64 µM)
- MIC ([7]; strain 519A, read-out: MIC): 0.5 µg/mL (≈ 0.819 µM)
- MIC ([7]; strain 566A, read-out: MIC): 2 µg/mL (≈ 3.27 µM)
- MIC ([7]; strain 588A): 1 µg/mL (≈ 1.64 µM)
- MIC ([7]; strain 632A): 1 µg/mL (≈ 1.64 µM)
- MIC ([7]; strain 667A): 1 µg/mL (≈ 1.64 µM)
- MIC ([7]; strain 747C): 1 µg/mL (≈ 1.64 µM)
- MIC ([7]; strain 751, read-out: MIC): 2 µg/mL (≈ 3.27 µM)
- MIC ([7]; strain 1177, read-out: MIC): 0.06 µg/mL (≈ 0.0982 µM)
- MIC ([7]; strain 1435, read-out: MIC): 0.5 µg/mL (≈ 0.819 µM)
- MIC ([7]; strain DILL AMP R): 1 µg/mL (≈ 1.64 µM)
- MIC ([7]; strain SOL AMP R): 1 µg/mL (≈ 1.64 µM)
- MIC ([7]; strain SPK AMP R): 1 µg/mL (≈ 1.64 µM)
- MIC ([8]; ATCC6538P): 0.78 µg/mL (≈ 1.28 µM)
- MIC [8, 17]: 0.78 µg/mL (≈ 1.28 µM)
- MIC [8, 18]: 0.78 µg/mL (≈ 1.28 µM)
- MIC [8, 19]: 0.78 µg/mL (≈ 1.28 µM)
- MIC [8, 20]: 0.78 µg/mL (≈ 1.28 µM)
- MIC [8, 21]: 1.56 µg/mL (≈ 2.55 µM)
- MIC [8, 22]: 0.78 µg/mL (≈ 1.28 µM)
- MIC [9]: > 100 µg/mL
- MIC [10]: 0.05 µg/mL (≈ 0.0819 µM)
- MIC [11]: 0.78 µg/mL (≈ 1.28 µM)
- MIC [12]: 12.5 µg/mL (≈ 20.5 µM)
- MIC [13]: 0.05 µg/mL (≈ 0.0819 µM)
- MIC [13, 23]: > 100 µg/mL
- MIC [13, 24]: 0.39 µg/mL (≈ 0.638 µM)
- MIC [14]: 0.39 µg/mL (≈ 0.638 µM)
- MIC [15, 25]: 0.2 µg/mL (≈ 0.327 µM)
- MIC ([15]; ATCC9341): 0.1 µg/mL (≈ 0.164 µM)

Structure (SMILES): CC[C@H]1OC(=O)C[C@@H](O)[C@H](C)[C@@H](O[C@@H]2O[C@H](C)C[C@H](N(C)C)[C@H]2O)[C@@H](CC=O)C[C@@H](C)C(=O)/C=C/[C@]2(C)O[C@H]2[C@@H]1C [Rosaramicin, 5-O-(4'-deoxy-mycaminosyl)-12,13-epoxy-23-deoxy-tylonide, reference compound]
- MIC [1]: 25 µg/mL (≈ 43 µM)
- MIC ([2]; strain DC-2): 12.5 µg/mL (≈ 21.5 µM)
- MIC ([2]; strain H560): 6.2 µg/mL (≈ 10.7 µM)
- MIC ([2]; strain JUHL): 12.5 µg/mL (≈ 21.5 µM)
- MIC ([2]; strain KNK 437): 25 µg/mL (≈ 43 µM)
- MIC ([2]; strain SS): 0.2 µg/mL (≈ 0.344 µM)
- MIC [3]: 12.5 µg/mL (≈ 21.5 µM)
- MIC ([4]; strain A5007): 100 µg/mL (≈ 172 µM)
- MIC ([4]; strain BMH10): 50 µg/mL (≈ 85.9 µM)
- MIC ([4]; strain K799/61): 0.78 µg/mL (≈ 1.34 µM)
- MIC ([4]; strain K799/WT): 25 µg/mL (≈ 43 µM)
- MIC [5]: 0.2 µg/mL (≈ 0.344 µM)
- MIC [6]: 25 µg/mL (≈ 43 µM)
- MIC ([7]; ATCC9795, strain ATCC 9795): 1 µg/mL (≈ 1.72 µM)
- MIC ([7]; ATCC10211, strain ATCC 10211, read-out: MIC): 0.5 µg/mL (≈ 0.859 µM)
- MIC ([7]; ATCC19418, strain ATCC 19418): 1 µg/mL (≈ 1.72 µM)
- MIC [7, 16]: 0.5 µg/mL (≈ 0.859 µM)
- MIC ([7]; strain 503B): 1 µg/mL (≈ 1.72 µM)
- MIC ([7]; strain 504): 1 µg/mL (≈ 1.72 µM)
- MIC ([7]; strain 519A, read-out: MIC): 0.5 µg/mL (≈ 0.859 µM)
- MIC ([7]; strain 566A): 1 µg/mL (≈ 1.72 µM)
- MIC ([7]; strain 588A, read-out: MIC): 0.5 µg/mL (≈ 0.859 µM)
- MIC ([7]; strain 632A): 1 µg/mL (≈ 1.72 µM)
- MIC ([7]; strain 667A): 1 µg/mL (≈ 1.72 µM)
- MIC ([7]; strain 747C, read-out: MIC): 0.5 µg/mL (≈ 0.859 µM)
- MIC ([7]; strain 751): 1 µg/mL (≈ 1.72 µM)
- MIC ([7]; strain 1177, read-out: MIC): 0.12 µg/mL (≈ 0.206 µM)
- MIC ([7]; strain 1435, read-out: MIC): 0.5 µg/mL (≈ 0.859 µM)
- MIC ([7]; strain DILL AMP R, read-out: MIC): 0.5 µg/mL (≈ 0.859 µM)
- MIC ([7]; strain SOL AMP R, read-out: MIC): 0.5 µg/mL (≈ 0.859 µM)
- MIC ([7]; strain SPK AMP R, read-out: MIC): 0.5 µg/mL (≈ 0.859 µM)
- MIC ([8]; ATCC6538P): 0.39 µg/mL (≈ 0.67 µM)
- MIC [8, 17]: 0.39 µg/mL (≈ 0.67 µM)
- MIC [8, 18]: 0.39 µg/mL (≈ 0.67 µM)
- MIC [8, 19]: 0.39 µg/mL (≈ 0.67 µM)
- MIC [8, 20]: 0.39 µg/mL (≈ 0.67 µM)
- MIC [8, 21]: 0.78 µg/mL (≈ 1.34 µM)
- MIC [8, 22]: 0.39 µg/mL (≈ 0.67 µM)
- MIC [9]: 100 µg/mL (≈ 172 µM)
- MIC [11]: 0.39 µg/mL (≈ 0.67 µM)
- MIC [12]: 12.5 µg/mL (≈ 21.5 µM)
- MIC [13, 23]: > 100 µg/mL
- MIC [13, 24]: 0.39 µg/mL (≈ 0.67 µM)
- MIC ([13]; strain EES61, BHI agar, 20-24 hours, read-out: MIC): 0.1 µg/mL (≈ 0.172 µM)
- MIC [14]: 0.39 µg/mL (≈ 0.67 µM)
- MIC [15, 25]: 0.1 µg/mL (≈ 0.172 µM)
